Data from ChEMBL document CHEMBL1201862, “PubChem BioAssay data set” (2004).
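1) Cells in 96-well plates. 2) Compound, 48 h, 5 concentrations. 3) Linear interpolation between surrounding doses. 4) Unreached endpoint = highest concentration. Abbreviation: GI50, concentration required for 50% inhibition of growth.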 Active and inactive are the calls of the source. Cut-off read from the data, not from the text of the source: active = GI50 up to about 1.1 µM and inactive = higher.

Assays:
Assay in all cases: inhibition of tumour cell growth, NCI panel, 48 h
[1] = test system: IGROV-1
[2] = test system: LOX IMVI
[3] = test system: OVCAR-5
[4] = test system: U-251
[5] = test system: A549
[6] = test system: SNB-19
[7] = test system: CCRF-CEM
[8] = test system: SW-620
[9] = test system: UACC-62
[10] = test system: CAKI-1
[11] = test system: RXF 393
[12] = test system: MDA-N
[13] = test system: ACHN
[14] = test system: 786-0
[15] = test system: KM12
[16] = test system: EKVX
[17] = test system: Malme-3M
[18] = test system: SF-539
[19] = test system: SR
[20] = test system: Hs-578T

Measured: GI50

NC(=O)Nc1ccc(S(=O)(=O)Nc2ccc(S(N)(=O)=O)cc2)cc1
inactive: [1] > 100 µM | [2] > 100 µM | [3] > 100 µM | [4] > 100 µM | [5] > 100 µM | [6] > 100 µM | [7] > 100 µM | [8] > 100 µM | [9] > 100 µM | [10] > 100 µM | [11] > 100 µM | [12] > 100 µM | [13] > 100 µM | [14] > 100 µM | [15] > 100 µM | [16] > 100 µM | [17] > 100 µM

O=C1CCC(=O)c2cc(Br)ccc2N1
inactive: [1] > 100 µM | [2] > 96.6 µM | [3] > 100 µM | [4] 99.3 µM | [5] 98.6 µM | [6] > 100 µM | [7] > 68.9 µM | [18] > 100 µM | [8] > 57.8 µM | [9] > 100 µM | [10] > 100 µM | [11] > 74.1 µM | [13] > 100 µM | [19] 26.4 µM | [14] > 100 µM | [15] > 100 µM | [16] > 63.2 µM | [17] > 100 µM

C/C(=N\N(C)C)c1sc(-n2nc(-c3ccccc3)cc2-c2ccccc2)nc1C
inactive: [1] > 100 µM | [2] 16.3 µM | [3] 21 µM | [4] 91.6 µM | [5] > 100 µM | [6] > 100 µM | [7] > 100 µM | [18] > 100 µM | [8] > 100 µM | [9] > 100 µM | [10] > 100 µM | [11] > 100 µM | [13] > 100 µM | [19] > 100 µM | [14] > 100 µM | [15] > 100 µM | [16] 8.22 µM | [17] > 100 µM

Cc1ccc(S(=O)(=O)NC(=O)NCCc2c[nH]cn2)cc1
inactive: [1] > 100 µM | [2] > 100 µM | [3] > 100 µM | [20] > 100 µM | [4] > 100 µM | [5] > 100 µM | [6] > 100 µM | [18] > 100 µM | [8] > 100 µM | [9] > 100 µM | [10] > 100 µM | [11] > 100 µM | [13] > 100 µM | [19] > 100 µM | [14] > 100 µM | [15] > 100 µM | [16] > 100 µM | [17] > 100 µM

CCOC(=O)/C=C\[C@H]1OC(C)(C)O[C@H]1[C@H](O)[C@H]1COC(C)(C)O1
inactive: [1] 19.5 µM | [2] 20 µM | [3] 17.1 µM | [20] 26.8 µM | [4] 17.7 µM | [5] > 100 µM | [6] > 100 µM | [7] 10.5 µM | [18] 17.7 µM | [8] 19.6 µM | [9] 23.7 µM | [10] 2.57 µM | [11] 20 µM | [13] 16.3 µM | [19] 17.1 µM | [14] 19.4 µM | [15] 77.3 µM | [16] 21.1 µM | [17] 18.9 µM

CC(=O)OC(OC(C)=O)c1ncccc1C(=O)OC(C)C
inactive: [1] > 100 µM | [2] 20.9 µM | [3] > 100 µM | [4] 18.3 µM | [5] > 100 µM | [6] > 100 µM | [7] 7.26 µM | [18] 56 µM | [8] > 100 µM | [9] > 100 µM | [10] > 100 µM | [11] 39.8 µM | [13] > 100 µM | [19] 15.1 µM | [14] > 100 µM | [15] 63.7 µM | [16] > 100 µM | [17] > 100 µM

COc1cccc(-n2nnc3c(N)nc(N)nc32)c1
inactive: [1] 51.6 µM | [2] > 100 µM | [3] > 100 µM | [4] > 100 µM | [5] > 100 µM | [6] 48.8 µM | [7] > 100 µM | [18] > 100 µM | [8] > 100 µM | [9] 33.3 µM | [10] > 100 µM | [12] > 100 µM | [13] 53.7 µM | [14] > 100 µM | [15] > 100 µM | [16] 12.3 µM | [17] > 100 µM

CCCCCCCCCCCCCCCCOCC(COP(=O)(O)OCC1OC(n2cc(CC)c(=O)[nH]c2=O)CC1O)OC(=O)CCCCCCCCCCCCCCC (configuration not stated)
inactive: [1] > 100 µM | [2] > 100 µM | [3] > 100 µM | [20] > 100 µM | [4] > 100 µM | [5] > 100 µM | [6] > 100 µM | [7] > 100 µM | [18] > 100 µM | [8] > 100 µM | [9] > 100 µM | [10] > 100 µM | [11] > 100 µM | [13] > 100 µM | [19] > 100 µM | [14] > 100 µM | [15] > 100 µM | [16] > 100 µM

O=C(c1ccccc1)[C@H]1Nc2cnccc2C2c3ccccc3CC21 (some centres not stated)
inactive: [1] 24 µM | [2] 1.57 µM | [3] 28.4 µM | [4] 11.3 µM | [5] 21.9 µM | [6] 26.7 µM | [7] 3.27 µM | [18] 15.7 µM | [8] 17.9 µM | [9] 16.9 µM | [10] 24.9 µM | [11] 14.8 µM | [13] 13.8 µM | [19] 7.43 µM | [14] 12.8 µM | [15] 42.1 µM | [16] 19.9 µM | [17] 12.9 µM

O=[N+]([O-])c1cccc(/C=N\NS(=O)(=O)c2ccc(Cl)cc2)c1O
inactive: [1] 49.4 µM | [2] > 100 µM | [3] > 100 µM | [4] 55.5 µM | [5] > 100 µM | [6] > 100 µM | [7] 31.7 µM | [18] 54.2 µM | [8] > 100 µM | [9] 49.7 µM | [10] > 100 µM | [11] 37.8 µM | [13] 98.6 µM | [19] 18.7 µM | [14] > 100 µM | [15] > 100 µM | [16] > 100 µM | [17] > 100 µM

COc1ccccc1NC(=S)Nc1cccc(C)n1
inactive: [1] 31.8 µM | [2] > 100 µM | [3] > 100 µM | [20] 37.2 µM | [4] > 100 µM | [5] > 100 µM | [6] > 100 µM | [7] > 100 µM | [18] > 100 µM | [8] > 100 µM | [9] 42.4 µM | [10] 88.5 µM | [11] > 100 µM | [19] > 100 µM | [14] 79.3 µM | [15] 25.6 µM | [16] 16.2 µM | [17] 16.7 µM
